From patent US11572590B2, “Methods for evaluating tumor cell spheroids using 3D microfluidic cell culture device” (Dana-Farber Cancer Institute, Inc., priority 2017, dated 2023)
Read-outs that look alike come from different tables or passages of the source.

What was measured:
Experiment in all cases: SelectScreen Kinase Profiling, single point inhibition and IC50 for off-target kinases
Assay type in all cases: biochemical
off-target kinases [1] = biological target: off-target kinases (Homo sapiens, UniProt P10721, V654A); conditions: KIT V654A (mutant), LanthaScreen Binding
Chain of off-target kinases (Homo sapiens, UniProt P10721, V654A) (P10721 26-976 V654A): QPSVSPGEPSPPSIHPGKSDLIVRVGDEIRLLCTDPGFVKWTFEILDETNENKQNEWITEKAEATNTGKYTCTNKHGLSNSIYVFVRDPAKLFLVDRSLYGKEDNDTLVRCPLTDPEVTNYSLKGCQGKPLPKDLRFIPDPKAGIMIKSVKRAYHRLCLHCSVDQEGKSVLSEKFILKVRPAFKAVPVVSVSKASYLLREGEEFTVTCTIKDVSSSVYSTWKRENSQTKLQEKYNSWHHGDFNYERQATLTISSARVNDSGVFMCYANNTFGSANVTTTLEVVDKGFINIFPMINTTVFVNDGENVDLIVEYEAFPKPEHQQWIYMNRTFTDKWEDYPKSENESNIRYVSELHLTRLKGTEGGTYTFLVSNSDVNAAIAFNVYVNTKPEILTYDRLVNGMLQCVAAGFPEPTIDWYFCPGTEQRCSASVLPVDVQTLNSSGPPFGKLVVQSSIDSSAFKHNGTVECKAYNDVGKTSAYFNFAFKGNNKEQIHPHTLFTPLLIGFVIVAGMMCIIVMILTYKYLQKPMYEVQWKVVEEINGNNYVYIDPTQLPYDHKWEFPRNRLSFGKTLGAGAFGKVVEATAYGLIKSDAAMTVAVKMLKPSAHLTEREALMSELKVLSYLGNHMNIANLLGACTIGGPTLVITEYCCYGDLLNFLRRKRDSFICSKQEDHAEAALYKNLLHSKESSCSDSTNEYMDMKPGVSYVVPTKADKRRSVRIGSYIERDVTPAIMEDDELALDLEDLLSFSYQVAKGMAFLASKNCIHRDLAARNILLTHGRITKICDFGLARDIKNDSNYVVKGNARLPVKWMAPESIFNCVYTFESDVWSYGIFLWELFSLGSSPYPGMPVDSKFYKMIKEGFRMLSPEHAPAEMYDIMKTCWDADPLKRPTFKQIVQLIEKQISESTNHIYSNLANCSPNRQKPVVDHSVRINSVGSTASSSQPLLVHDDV

off-target kinases [2] = biological target: off-target kinases (Homo sapiens, UniProt P49761); conditions: CLK3, ZLYTE, ATP Km app
Chain of off-target kinases (Homo sapiens, UniProt P49761) (P49761 whole entry): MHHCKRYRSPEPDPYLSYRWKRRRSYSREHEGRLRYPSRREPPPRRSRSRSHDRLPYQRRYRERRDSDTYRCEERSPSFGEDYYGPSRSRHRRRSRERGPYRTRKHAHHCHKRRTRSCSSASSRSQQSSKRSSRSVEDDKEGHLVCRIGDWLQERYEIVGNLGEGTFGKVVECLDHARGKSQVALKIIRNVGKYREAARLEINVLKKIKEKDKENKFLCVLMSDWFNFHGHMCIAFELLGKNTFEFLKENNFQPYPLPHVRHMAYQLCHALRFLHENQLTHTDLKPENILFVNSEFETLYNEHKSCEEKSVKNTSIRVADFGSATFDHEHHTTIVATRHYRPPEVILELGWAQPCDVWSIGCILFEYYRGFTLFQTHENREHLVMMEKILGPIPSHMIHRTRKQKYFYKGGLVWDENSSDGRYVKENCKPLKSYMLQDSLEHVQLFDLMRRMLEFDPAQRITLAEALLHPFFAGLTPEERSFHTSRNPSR

off-target kinases [3] = biological target: off-target kinases (Homo sapiens, UniProt Q9BYP7)
Chain of off-target kinases (Homo sapiens, UniProt Q9BYP7) (Q9BYP7 whole entry): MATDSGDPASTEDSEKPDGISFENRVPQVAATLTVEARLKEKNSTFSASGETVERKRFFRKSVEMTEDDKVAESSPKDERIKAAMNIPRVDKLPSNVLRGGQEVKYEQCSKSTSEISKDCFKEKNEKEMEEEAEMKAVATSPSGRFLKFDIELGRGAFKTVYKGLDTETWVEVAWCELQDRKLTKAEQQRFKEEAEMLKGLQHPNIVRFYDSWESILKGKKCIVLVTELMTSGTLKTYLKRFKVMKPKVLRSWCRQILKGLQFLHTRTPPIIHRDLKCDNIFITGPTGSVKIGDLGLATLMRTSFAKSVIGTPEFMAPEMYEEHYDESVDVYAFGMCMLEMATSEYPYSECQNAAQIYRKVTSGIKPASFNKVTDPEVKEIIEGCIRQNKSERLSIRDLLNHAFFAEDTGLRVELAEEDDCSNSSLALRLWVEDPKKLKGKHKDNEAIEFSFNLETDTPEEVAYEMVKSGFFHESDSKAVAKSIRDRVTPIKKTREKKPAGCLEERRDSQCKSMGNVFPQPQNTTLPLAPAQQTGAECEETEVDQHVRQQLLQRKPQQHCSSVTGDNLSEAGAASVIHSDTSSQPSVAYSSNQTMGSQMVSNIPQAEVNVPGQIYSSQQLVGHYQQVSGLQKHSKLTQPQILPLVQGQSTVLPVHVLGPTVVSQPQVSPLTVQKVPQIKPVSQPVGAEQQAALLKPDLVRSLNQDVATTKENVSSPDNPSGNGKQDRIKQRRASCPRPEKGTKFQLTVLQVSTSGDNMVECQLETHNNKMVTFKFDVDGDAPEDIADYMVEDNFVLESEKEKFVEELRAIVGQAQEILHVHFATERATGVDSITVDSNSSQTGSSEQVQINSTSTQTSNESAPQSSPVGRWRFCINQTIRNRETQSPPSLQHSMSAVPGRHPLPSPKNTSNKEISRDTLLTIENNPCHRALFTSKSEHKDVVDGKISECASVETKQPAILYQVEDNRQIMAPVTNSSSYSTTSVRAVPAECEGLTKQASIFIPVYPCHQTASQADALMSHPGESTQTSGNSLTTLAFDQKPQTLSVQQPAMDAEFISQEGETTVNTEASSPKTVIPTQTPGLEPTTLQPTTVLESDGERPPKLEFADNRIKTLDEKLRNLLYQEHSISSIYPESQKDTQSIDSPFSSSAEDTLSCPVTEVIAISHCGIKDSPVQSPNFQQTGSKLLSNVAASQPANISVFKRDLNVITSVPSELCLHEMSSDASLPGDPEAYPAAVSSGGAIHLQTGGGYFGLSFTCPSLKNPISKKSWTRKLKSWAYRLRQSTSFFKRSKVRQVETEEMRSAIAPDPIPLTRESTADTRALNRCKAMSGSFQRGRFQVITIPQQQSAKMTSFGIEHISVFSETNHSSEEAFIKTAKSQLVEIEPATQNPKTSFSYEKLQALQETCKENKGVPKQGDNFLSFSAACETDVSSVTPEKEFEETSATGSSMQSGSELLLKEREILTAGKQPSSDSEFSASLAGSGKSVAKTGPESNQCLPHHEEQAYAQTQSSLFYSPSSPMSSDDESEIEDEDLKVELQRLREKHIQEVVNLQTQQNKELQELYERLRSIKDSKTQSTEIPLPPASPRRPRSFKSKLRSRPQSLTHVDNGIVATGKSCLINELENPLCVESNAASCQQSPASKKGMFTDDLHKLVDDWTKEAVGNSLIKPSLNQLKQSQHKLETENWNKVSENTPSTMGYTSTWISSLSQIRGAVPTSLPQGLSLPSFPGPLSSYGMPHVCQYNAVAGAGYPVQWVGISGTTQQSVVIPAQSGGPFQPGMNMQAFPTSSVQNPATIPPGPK

off-target kinases [4] = biological target: T1, off-target kinases (Homo sapiens, UniProt Q9UL54); conditions: TAOK2 (TAO1), ZLYTE, ATP Km app
T1 sequence (Q9UL54 1-1235): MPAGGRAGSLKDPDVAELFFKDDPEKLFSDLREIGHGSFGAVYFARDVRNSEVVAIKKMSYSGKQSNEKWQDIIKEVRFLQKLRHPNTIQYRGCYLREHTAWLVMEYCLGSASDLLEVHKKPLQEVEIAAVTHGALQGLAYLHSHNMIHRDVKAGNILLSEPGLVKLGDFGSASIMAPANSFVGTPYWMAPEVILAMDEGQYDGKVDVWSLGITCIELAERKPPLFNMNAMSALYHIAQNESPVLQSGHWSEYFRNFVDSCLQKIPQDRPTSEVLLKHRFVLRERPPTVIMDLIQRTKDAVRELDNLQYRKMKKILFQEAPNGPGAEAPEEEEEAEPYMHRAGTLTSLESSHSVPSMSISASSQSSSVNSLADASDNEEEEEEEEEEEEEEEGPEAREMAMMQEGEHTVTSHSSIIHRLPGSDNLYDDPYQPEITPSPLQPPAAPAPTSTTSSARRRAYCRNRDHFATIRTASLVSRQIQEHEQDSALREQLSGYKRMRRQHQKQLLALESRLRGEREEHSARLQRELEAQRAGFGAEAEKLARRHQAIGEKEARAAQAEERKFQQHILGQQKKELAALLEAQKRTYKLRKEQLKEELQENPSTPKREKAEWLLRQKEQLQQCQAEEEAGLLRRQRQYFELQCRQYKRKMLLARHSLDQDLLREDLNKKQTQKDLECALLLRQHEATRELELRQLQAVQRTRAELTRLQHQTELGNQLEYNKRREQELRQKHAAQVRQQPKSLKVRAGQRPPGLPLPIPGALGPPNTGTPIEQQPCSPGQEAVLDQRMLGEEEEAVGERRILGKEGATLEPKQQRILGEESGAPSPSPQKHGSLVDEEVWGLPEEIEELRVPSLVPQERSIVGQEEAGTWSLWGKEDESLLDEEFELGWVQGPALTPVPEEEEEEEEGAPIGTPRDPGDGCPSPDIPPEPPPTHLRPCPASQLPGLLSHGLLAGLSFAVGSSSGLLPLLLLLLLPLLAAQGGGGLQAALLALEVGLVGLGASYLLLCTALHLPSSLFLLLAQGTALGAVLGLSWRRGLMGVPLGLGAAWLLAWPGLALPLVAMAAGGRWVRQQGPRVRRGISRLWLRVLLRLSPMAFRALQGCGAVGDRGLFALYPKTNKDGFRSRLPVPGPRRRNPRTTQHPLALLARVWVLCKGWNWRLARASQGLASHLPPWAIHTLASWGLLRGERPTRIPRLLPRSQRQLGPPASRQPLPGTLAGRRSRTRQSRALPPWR

N#Cc1cc(-c2ncnc(Nc3ccc(N4CCN(C5COC5)CC4)cc3)n2)ccc1OC1CCOCC1 [Compound 1, 5-(4-((4-(4-(oxetan-3-yl)piperazin-1-yl)phenyl)amino)-1,3,5-triazin-2-yl)-2-((tetrahydro-2H-pyran-4-yl)oxy)benzonitrile]
inhibition (off-target kinases [1]; read-out: % Inhibition 1): 7% | inhibition (off-target kinases [1]; read-out: % Inhibition 2): 10% | inhibition (off-target kinases [1]; read-out: % Inhibition Avg): 9% | inhibition (off-target kinases [2]; read-out: % Inhibition 1): 1% | inhibition (off-target kinases [2]; read-out: % Inhibition 2): 3% | inhibition (off-target kinases [2]; read-out: % Inhibition Avg): 2% | inhibition (off-target kinases [3]; WNK3, LanthaScreen Binding, read-out: % Inhibition 1): -3% | inhibition (off-target kinases [3]; WNK3, LanthaScreen Binding, read-out: % Inhibition Avg): -2% | inhibition (off-target kinases [3]; read-out: % Inhibition 2): 0% | inhibition (off-target kinases [4]; read-out: % Inhibition 1): 3% | inhibition (off-target kinases [4]; read-out: % Inhibition 2): 6% | inhibition (off-target kinases [4]; read-out: % Inhibition Avg): 5%
